In US9884842B2, “Combretastatin analogs” (The Board of Trustees of the University of Arkansas, priority 2013, dated 2018):
Like-named read-outs stand apart in the source and are kept apart here.

How the values were obtained:
NCI-H522 = assay: NCI growth inhibition and cytotoxicity screen, Lung Cancer panel; format: cell-based; conditions: Homo sapiens; for CC50: read-out: LC50 (the source's name)
SF-295 = assay: NCI growth inhibition and cytotoxicity screen, CNS Cancer panel; format: cell-based; conditions: Homo sapiens; for CC50: read-out: LC50 (the source's name)
HL-60(TB) = assay: cells; conditions: Homo sapiens; for GI50: HL-60; for CC50: HL-60, read-out: LC50
OVCAR-3 = assay: cells; conditions: Homo sapiens; for GI50: OVCAR-3; for CC50: OVCAR-3, read-out: LC50
CCRF-CEM = assay: NCI growth inhibition and cytotoxicity screen, Leukemia panel; conditions: Homo sapiens; for CC50: read-out: LC50
K-562 = assay: as above; conditions: Homo sapiens; for GI50: K562; for CC50: K562, read-out: LC50
RPMI-8226 = assay: as above; conditions: Homo sapiens; for GI50: RPMI-8226; for CC50: RPMI-8226, read-out: LC50
LOX-IMVI = assay: NCI growth inhibition and cytotoxicity screen, Melanoma panel; conditions: Homo sapiens; for CC50: read-out: LC50
MDA-MB-435 = assay: as above; conditions: Homo sapiens; for GI50: MDA-MB-435; for CC50: MDA-MB-435, read-out: LC50
SK-MEL-2 = assay: as above; conditions: Homo sapiens; for GI50: SK-MEL-2; for CC50: SK-MEL-2, read-out: LC50
UACC-257 = assay: as above; conditions: Homo sapiens; for CC50: UACC-257, read-out: LC50
SF-539 = assay: NCI growth inhibition and cytotoxicity screen, CNS Cancer panel; conditions: Homo sapiens; for GI50: SF-539; for CC50: SF-539, read-out: LC50
SNB-19 = assay: as above; conditions: Homo sapiens; for GI50: SNB-19; for CC50: SNB-19, read-out: LC50
SNB-75 = assay: as above; conditions: Homo sapiens; for GI50: SNB-75; for CC50: SNB-75, read-out: LC50
U251 = assay: as above; conditions: Homo sapiens; for GI50: U-251; for CC50: U-251, read-out: LC50
A549/ATCC = assay: NCI growth inhibition and cytotoxicity screen, Lung Cancer panel; conditions: Homo sapiens; for GI50: A549; for CC50: A549, read-out: LC50
HOP-92 = assay: as above; conditions: Homo sapiens; for GI50: HOP-92; for CC50: HOP-92, read-out: LC50
NCI-H226 = assay: as above; conditions: Homo sapiens; for GI50: NCI-H226; for CC50: NCI-H226, read-out: LC50
NCI-H23 = assay: as above; conditions: Homo sapiens; for GI50: NCI-H23; for CC50: NCI-H23, read-out: LC50
HCC-2998 = assay: NCI growth inhibition and cytotoxicity screen, Colon Cancer panel; conditions: Homo sapiens; for GI50: HCC 2998; for CC50: HCC 2998, read-out: LC50
A498 = assay: NCI growth inhibition and cytotoxicity screen, Renal Cancer panel; conditions: Homo sapiens; for GI50: A498; for CC50: A498, read-out: LC50
RXF 393 = assay: as above; conditions: Homo sapiens; for GI50: RXF 393; for CC50: RXF 393, read-out: LC50
SN12C = assay: as above; conditions: Homo sapiens; for CC50: read-out: LC50
UO-31 = assay: as above; conditions: Homo sapiens; for GI50: UO-31; for CC50: UO-31, read-out: LC50
MDA-MB-231/ATCC = assay: NCI growth inhibition and cytotoxicity screen, Breast Cancer panel; conditions: Homo sapiens; for GI50: MDA-MB-231; for CC50: MDA-MB-231, read-out: LC50
BT-549 = assay: as above; conditions: Homo sapiens; for GI50: BT-549; for CC50: BT-549, read-out: LC50
T-47D = assay: as above; conditions: Homo sapiens, T47D; for CC50: read-out: LC50
IGROV1 = assay: NCI growth inhibition and cytotoxicity screen, Ovarian Cancer panel; conditions: Homo sapiens; for GI50: IGROV-1; for CC50: IGROV-1, read-out: LC50
OVCAR-5 = assay: as above; conditions: Homo sapiens; for GI50: OVCAR-5; for CC50: OVCAR-5, read-out: LC50
SK-OV-3 = assay: as above; conditions: Homo sapiens; for GI50: SK-OV-3; for CC50: SK-OV-3, read-out: LC50
DU-145 = assay: NCI growth inhibition and cytotoxicity screen, Prostate Cancer panel; conditions: Homo sapiens; for GI50: DU-145; for CC50: DU-145, read-out: LC50
[1] = NCI-H522, Table 1, cell line NCIH522 (Lung Cancer)
[2] = SF-295, Table 1, cell line SF-2395 (CNS Cancer)
[3] = Table 2, cell line NCI-H522 (Lung Cancer)
[4] = Table 2, cell line SF-295 (CNS Cancer)

## COc1cc(OC)cc(/C(C#N)=C/c2c[nH]c3ccccc23)c1 [Formula (I)(b)]
NCI-H522; [1]
  GI50: 27.1 nM
  CC50: > 100000 nM
SF-295; [2]
  GI50: 45.3 nM
  CC50: > 100000 nM
HL-60(TB)
  GI50: 31.2 nM
  CC50: > 100000 nM
OVCAR-3
  GI50: 31.2 nM
  CC50: > 100000 nM
CCRF-CEM
  GI50: 42.4 nM
  CC50: > 100000 nM
K-562
  GI50: 43.2 nM
  CC50: > 100000 nM
RPMI-8226
  GI50: 65.5 nM
  CC50: > 100000 nM
LOX-IMVI
  GI50: 78.4 nM
  CC50: > 100000 nM
MDA-MB-435
  GI50: 20.3 nM
  CC50: > 100000 nM
SK-MEL-2
  GI50: 51.2 nM
  CC50: > 100000 nM
UACC-257; UACC-257
  GI50: 48.7 nM
UACC-257
  CC50: > 100000 nM
SF-539
  GI50: 52.2 nM
  CC50: 90200 nM
SNB-19
  GI50: 62.1 nM
  CC50: > 100000 nM
SNB-75
  GI50: 34.8 nM
  CC50: > 100000 nM
U251
  GI50: 45.4 nM
  CC50: > 100000 nM
A549/ATCC
  GI50: 61.8 nM
  CC50: > 100000 nM
HOP-92
  GI50: 68.4 nM
  CC50: > 100000 nM
NCI-H226
  GI50: > 100 nM
  CC50: > 100000 nM
NCI-H23
  GI50: > 100 nM
  CC50: > 100000 nM
HCC-2998
  GI50: > 100 nM
  CC50: > 100000 nM
A498
  GI50: 35.3 nM
  CC50: > 100000 nM
RXF 393
  GI50: 83.7 nM
  CC50: > 100000 nM
SN12C
  GI50: 77.9 nM
  CC50: > 100000 nM
UO-31
  GI50: > 100 nM
  CC50: > 100000 nM
MDA-MB-231/ATCC
  GI50: > 100 nM
  CC50: > 100000 nM
BT-549
  GI50: > 100 nM
  CC50: > 100000 nM
T-47D
  GI50: > 100 nM
  CC50: > 100000 nM
IGROV1
  GI50: > 100 nM
  CC50: > 100000 nM
OVCAR-5
  GI50: > 100 nM
  CC50: > 100000 nM
SK-OV-3
  GI50: > 100 nM
  CC50: > 100000 nM
DU-145
  GI50: > 100 nM
  CC50: > 100000 nM

## COc1cc(OC)cc(/C(C#N)=C/c2ccc3ccccc3n2)c1 [PNR-4-84, (Z)-2-(3,5-dimethoxyphenyl)-3-(quinolin-2-yl)acrylonitrile]
NCI-H522; [3]
  GI50: 94 nM
  CC50: > 100000 nM
SF-295; [4]
  GI50: 341 nM
  CC50: > 100000 nM
HL-60(TB)
  GI50: 270 nM
  CC50: > 100000 nM
OVCAR-3
  GI50: 309 nM
  CC50: 34000 nM
CCRF-CEM
  GI50: 332 nM
  CC50: > 100000 nM
K-562
  GI50: 353 nM
  CC50: > 100000 nM
RPMI-8226
  GI50: 433 nM
  CC50: > 100000 nM
LOX-IMVI
  GI50: 610 nM
  CC50: > 100000 nM
MDA-MB-435
  GI50: 147 nM
  CC50: > 100000 nM
SK-MEL-2
  GI50: 522 nM
  CC50: > 100000 nM
UACC-257
  CC50: > 100000 nM
SF-539
  GI50: 286 nM
  CC50: 8030 nM
SNB-19
  GI50: 728 nM
  CC50: > 100000 nM
SNB-75
  GI50: 311 nM
  CC50: > 100000 nM
U251
  GI50: 425 nM
  CC50: > 100000 nM
A549/ATCC
  GI50: 649 nM
  CC50: > 100000 nM
HOP-92
  GI50: 542 nM
  CC50: > 100000 nM
NCI-H226
  GI50: 10800 nM
  CC50: > 100000 nM
NCI-H23
  GI50: 983 nM
  CC50: > 100000 nM
HCC-2998
  GI50: 1420 nM
  CC50: > 100000 nM
A498
  GI50: 275 nM
  CC50: > 100000 nM
RXF 393
  GI50: 334 nM
  CC50: > 100000 nM
SN12C
  GI50: 661 nM
  CC50: > 100000 nM
UO-31
  GI50: 573 nM
  CC50: > 100000 nM
MDA-MB-231/ATCC
  GI50: 1020 nM
  CC50: > 100000 nM
BT-549
  GI50: 342 nM
  CC50: 80600 nM
T-47D
  GI50: 1230 nM
  CC50: > 100000 nM
IGROV1
  GI50: 958 nM
  CC50: > 100000 nM
OVCAR-5
  GI50: 716 nM
  CC50: 42800 nM
SK-OV-3
  GI50: 804 nM
  CC50: > 100000 nM
DU-145
  GI50: 801 nM
  CC50: > 100000 nM
